ChEMBL document CHEMBL1201862, “PubChem BioAssay data set” (2004)
Calls of active or inactive are those of the source.

What was measured:
Cytochrome P450 2C9 = Cytochrome P450 2C9 (Homo sapiens, UniProt P11712)
[1] = luciferase reporter signal suppression in cells – H4 neuroglioma cells, luminescence, dose response (AID 1990); assay type: functional, cell-based
cells [2] = assay type: functional, cell-based
[3] = Luminescence Cell-Based Dose Response HTS to Identify Inhibitors of 5'UTR Stem-Loop Driven Prion Protein mRNA Translation in H4 Neuroglioblastoma Cells. [Related pubchem assays: 1827 (Project Summary), 1813 (Primary HTS)]; assay type: functional
[4] = alpha-synuclein stem-loop luciferase translation blockers – H4 neuroglioma cells, luminescence, confirmation (AID 1988); assay type: functional, cell-based
cells [5] = assay type: functional, cell-based; remark: listed apart in the source
[6] = Luminescence Cell-Based Dose Retest to Confirm Inhibitors of Cancer Stem Cells. [Related pubchem assays (depositor defined):AID2717, AID2721]; assay type: functional; settings: Homo sapiens
INS1 = experiment: INS-1E survival protection against cytokine death – cell-based, luminescence, retest, dose response (AID 449756); assay type: functional; settings: Rattus norvegicus;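 further: cell death triggered by IL-1 beta plus TNF-alpha plus IFN-gamma mixture; protective hits raise ATP signal compared with cytokine alone wells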
[7] = reduction of Shn3 3'UTR-driven luciferase in osteoblasts – cell-based, Clone20 osteoblasts, firefly luciferase, cherry-picked, dose response (AID 624132); assay type: functional;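 further: firefly luciferase luminescence from reporter carrying the Shn3 3'UTR in osteoblasts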
[8] = loss of viability in HepG2 cells – cell-based, CellTiter-Glo, cherry-picked, cytotoxicity control for Shn3 inhibitor project, dose response (AID 624134); assay type: functional
[9] = non-specific 3'UTR reporter inhibition in Clone20-Shn3RL – cell-based, Renilla luciferase, cherry-picked, counter-screen for Shn3 inhibitor project, dose response (AID 624133); assay type: functional
[10] = NIH-3T3 fibroblast cytotoxicity, dose response, cytotoxicity control, cell-based, fluorescence, Alamar Blue, secondary assay (AID 2327); assay type: functional;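 further: NIH-3T3 mouse fibroblasts cultured with fluconazole at 8 µg/mL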
[11] = fluconazole-exposed Candida albicans growth modulators – fluorescence, retest, confirmation (AID 2467); assay type: functional, cell-based
Cytochrome P450 2C19 = Cytochrome P450 2C19 (Homo sapiens, UniProt P33261); experiment: Cytochrome panel assay with activity outcomes. Panel member name: p450-cyp2c19 Compounds with AC50 equal or less than 10 uM are considered active; assay type: functional
Chain of Cytochrome P450 2C19 (P33261 whole entry): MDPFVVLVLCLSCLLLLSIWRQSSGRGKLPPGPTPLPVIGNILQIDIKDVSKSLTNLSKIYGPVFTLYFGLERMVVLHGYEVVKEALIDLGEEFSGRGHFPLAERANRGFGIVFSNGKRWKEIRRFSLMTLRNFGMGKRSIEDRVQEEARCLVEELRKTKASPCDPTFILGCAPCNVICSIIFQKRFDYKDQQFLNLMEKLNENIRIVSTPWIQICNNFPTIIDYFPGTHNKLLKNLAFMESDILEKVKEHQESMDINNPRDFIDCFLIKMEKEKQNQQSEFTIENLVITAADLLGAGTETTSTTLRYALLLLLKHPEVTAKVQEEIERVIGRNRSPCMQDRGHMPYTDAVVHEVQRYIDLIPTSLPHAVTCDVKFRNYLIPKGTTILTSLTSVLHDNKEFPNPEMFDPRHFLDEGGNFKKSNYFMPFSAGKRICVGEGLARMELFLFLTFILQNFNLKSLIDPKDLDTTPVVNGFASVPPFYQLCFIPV

Vero = experiment: cells; assay type: functional; settings: Chlorocebus sabaeus
Cytochrome P450 2D6 = Cytochrome P450 2D6 (Homo sapiens, UniProt P10635);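 further: CYP2D6 member of a cytochrome P450 panel assay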
Chain of Cytochrome P450 2D6 (P10635 whole entry): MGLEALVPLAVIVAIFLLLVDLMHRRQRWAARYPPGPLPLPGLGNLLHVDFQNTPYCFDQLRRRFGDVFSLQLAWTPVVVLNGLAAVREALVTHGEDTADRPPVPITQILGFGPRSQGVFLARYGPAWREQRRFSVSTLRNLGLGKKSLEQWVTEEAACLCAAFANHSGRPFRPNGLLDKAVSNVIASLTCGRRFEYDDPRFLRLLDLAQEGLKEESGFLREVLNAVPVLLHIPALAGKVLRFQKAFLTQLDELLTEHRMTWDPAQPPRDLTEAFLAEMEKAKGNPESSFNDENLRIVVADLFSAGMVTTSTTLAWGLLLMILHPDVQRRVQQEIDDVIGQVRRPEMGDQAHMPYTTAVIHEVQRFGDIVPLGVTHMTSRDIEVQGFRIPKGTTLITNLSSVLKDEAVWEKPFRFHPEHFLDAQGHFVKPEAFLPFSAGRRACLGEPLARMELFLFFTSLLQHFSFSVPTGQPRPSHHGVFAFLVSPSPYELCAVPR

[12] = target: T1, Short transient receptor potential channel 4 (Mus musculus, UniProt Q9QUQ5); experiment: calcium entry via TRPC4 opening agents – cell-based, HEK293 TRPC4/mu-opioid, Fluo-4 calcium, dose response (AID 434937); assay type: functional
T1 sequence (Q9QUQ5 whole entry): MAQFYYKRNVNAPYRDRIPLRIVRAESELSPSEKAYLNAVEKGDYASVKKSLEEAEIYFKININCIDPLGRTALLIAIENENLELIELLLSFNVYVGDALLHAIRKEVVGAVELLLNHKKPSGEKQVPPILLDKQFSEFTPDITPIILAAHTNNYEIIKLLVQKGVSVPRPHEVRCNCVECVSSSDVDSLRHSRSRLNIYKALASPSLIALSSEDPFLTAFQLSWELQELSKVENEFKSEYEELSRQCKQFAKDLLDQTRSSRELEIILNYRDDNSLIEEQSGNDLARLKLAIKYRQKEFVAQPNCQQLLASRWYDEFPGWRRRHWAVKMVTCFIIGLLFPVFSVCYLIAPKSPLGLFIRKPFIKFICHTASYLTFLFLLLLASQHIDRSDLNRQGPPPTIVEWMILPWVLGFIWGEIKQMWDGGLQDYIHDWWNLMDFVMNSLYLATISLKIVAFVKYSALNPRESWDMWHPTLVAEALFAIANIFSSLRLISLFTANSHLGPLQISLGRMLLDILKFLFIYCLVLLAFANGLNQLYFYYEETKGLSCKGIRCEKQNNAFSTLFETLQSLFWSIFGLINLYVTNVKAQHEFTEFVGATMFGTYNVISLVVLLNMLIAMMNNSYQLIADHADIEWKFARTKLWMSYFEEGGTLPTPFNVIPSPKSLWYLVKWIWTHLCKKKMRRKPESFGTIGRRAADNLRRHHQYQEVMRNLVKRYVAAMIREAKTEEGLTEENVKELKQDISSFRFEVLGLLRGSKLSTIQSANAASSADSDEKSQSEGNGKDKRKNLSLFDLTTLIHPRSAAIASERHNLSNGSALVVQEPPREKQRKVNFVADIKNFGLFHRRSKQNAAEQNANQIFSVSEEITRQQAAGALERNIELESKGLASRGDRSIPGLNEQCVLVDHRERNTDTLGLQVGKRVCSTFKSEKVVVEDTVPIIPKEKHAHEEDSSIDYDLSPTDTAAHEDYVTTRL

[13] = target: Heat shock protein HSP 90-alpha (Homo sapiens, UniProt P07900); assay type: functional, organism-based
[14] = target: T2, Polyadenylate-binding protein 1 (Homo sapiens, UniProt P11940); experiment: MLLE binding blockers, Cy5 peptide tracer – biochemical, fluorescence polarization, Cy5-PAM2 peptide, secondary, miRNA deadenylation inhibitor project, dose response (AID 602260); assay type: functional; settings: read-out: IC50_Mean
T2 sequence (P11940 whole entry, the tested form may be a part): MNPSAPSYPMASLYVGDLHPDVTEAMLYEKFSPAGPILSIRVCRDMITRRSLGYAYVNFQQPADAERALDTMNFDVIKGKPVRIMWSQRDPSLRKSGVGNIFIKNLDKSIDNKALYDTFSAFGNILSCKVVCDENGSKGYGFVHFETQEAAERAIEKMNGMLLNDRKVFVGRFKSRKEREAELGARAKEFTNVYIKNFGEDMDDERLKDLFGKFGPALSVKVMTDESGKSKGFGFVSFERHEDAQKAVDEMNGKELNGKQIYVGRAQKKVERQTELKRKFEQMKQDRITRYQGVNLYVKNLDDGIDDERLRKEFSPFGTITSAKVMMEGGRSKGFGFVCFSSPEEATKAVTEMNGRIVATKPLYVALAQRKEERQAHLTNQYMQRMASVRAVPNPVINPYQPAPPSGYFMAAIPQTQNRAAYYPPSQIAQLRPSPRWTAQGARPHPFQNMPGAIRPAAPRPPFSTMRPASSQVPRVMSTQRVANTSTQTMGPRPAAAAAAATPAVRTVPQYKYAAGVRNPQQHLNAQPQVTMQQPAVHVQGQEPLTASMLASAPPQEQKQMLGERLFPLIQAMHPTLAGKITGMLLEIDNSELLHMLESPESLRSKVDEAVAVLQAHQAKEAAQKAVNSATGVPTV

[15] = target: T2, Polyadenylate-binding protein 1; experiment: MLLE domain peptide-binding blockers, IC50 – biochemical, fluorescence polarization, FITC-PAM2 peptide, dose response (AID 602259); assay type: functional; settings: read-out: IC50_Mean
[16] = Trypanosoma cruzi growth suppression in host cells – NIH3T3 host cells, beta-gal luminescence, confirmation (AID 2044); assay type: functional, cell-based;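 further: intracellular parasites grown in NIH/3T3 mouse fibroblasts as host cells; luminescent beta-galactosidase reporter signal from transgenic T. cruzi replicating inside host cells; inhibitors lower the luminescence signal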
[17] = NIH3T3 cell viability loss – ATP luminescence, mouse fibroblasts, counter-screen, dose response (AID 2010); assay type: functional, cell-based;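 further: cells exposed to compound for about 90 hours before reading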
[18] = tested on: Streptococcus sp. 'group A'; experiment: Streptococcus pyogenes SK(-)GAS viability under kanamycin – luminescence, BacTiterGlo, confirmation, counter-screen for streptokinase expression inhibitor project, dose response (AID 1900); assay type: functional, organism-based
H4 = experiment: Luminescence Cell-Based Dose Response HTS to Identify Activators of 5'UTR Stem-Loop Driven Prion Protein mRNA Translation in H4 Neuroglioblastoma Cells. [Related pubchem assays: 1829 (Project Summary), 1814 (Primary HTS)]; assay type: functional; settings: Homo sapiens
Streptokinase A = target: T3, Streptokinase A (Streptococcus pyogenes serotype M1, UniProt P10520); experiment: viability-normalized secreted streptokinase activity reduction – plasminogen activation absorbance, OD405, dose response (AID 1914); assay type: functional, Streptococcus pyogenes M1 GAS;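 further: secreted streptokinase activity via plasminogen activation per viability signal from cell pellet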
T3 sequence (P10520 whole entry): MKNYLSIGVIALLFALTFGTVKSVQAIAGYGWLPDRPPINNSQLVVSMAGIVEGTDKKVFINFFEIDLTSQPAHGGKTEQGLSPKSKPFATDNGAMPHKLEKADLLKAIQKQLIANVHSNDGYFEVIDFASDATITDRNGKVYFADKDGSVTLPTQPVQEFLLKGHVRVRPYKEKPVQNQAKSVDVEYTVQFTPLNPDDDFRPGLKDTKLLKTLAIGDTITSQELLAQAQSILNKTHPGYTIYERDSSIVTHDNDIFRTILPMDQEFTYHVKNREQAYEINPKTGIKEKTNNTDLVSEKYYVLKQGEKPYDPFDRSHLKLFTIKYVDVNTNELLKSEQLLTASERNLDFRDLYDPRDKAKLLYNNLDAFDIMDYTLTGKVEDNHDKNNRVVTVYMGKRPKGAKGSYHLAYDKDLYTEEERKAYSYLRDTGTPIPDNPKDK

Streptococcus = experiment: GAS UMAA2166 growth inhibition – luminescence, BacTiterGlo, counter-screen for streptokinase expression inhibitor project, dose response (AID 1915); assay type: functional, organism-based;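 further: potency for reduction of bacterial viability or growth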

Chain of Cytochrome P450 2C9 (P11712 whole entry): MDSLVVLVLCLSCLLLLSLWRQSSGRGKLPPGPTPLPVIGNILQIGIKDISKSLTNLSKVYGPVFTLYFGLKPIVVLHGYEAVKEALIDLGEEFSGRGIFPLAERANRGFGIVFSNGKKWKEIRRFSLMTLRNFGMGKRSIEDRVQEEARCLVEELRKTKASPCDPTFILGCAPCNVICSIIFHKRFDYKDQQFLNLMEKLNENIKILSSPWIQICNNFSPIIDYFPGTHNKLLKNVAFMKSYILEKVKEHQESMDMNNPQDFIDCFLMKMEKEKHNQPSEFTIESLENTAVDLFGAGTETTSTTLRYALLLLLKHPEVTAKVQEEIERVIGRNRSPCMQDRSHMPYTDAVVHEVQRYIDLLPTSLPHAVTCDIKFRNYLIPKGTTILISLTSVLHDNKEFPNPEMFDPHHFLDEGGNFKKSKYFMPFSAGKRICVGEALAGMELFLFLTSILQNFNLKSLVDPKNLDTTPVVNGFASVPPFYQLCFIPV

SMILES: CS(=O)(=O)c1ccc(Cn2c3c(c4cc(F)cc(F)c42)CCC[C@H]3CC(=O)O)cc1
- AC50 (Cytochrome P450 2C9): inconclusive

SMILES: CCOC(=O)c1cnc(-n2nc(C)cc2C)nc1NNc1nc(-c2ccccc2)cc(-c2ccccc2)n1
- EC50 [1]: 8.48 µM (active)
- EC50 (cells [2]): > 350 µM (not active)
- EC50 [3]: 12.6 µM (active)
- EC50 [4]: 8.83 µM (active)
- EC50 (cells [5]): > 350 µM (not active)
- AC50 [6]: 1.88 µM (active)
- AC50 (INS1): 2.69 µM (active)
- AC50 [7]: 3.84 µM (active)
- AC50 [8]: 48.5 µM (active)
- AC50 [9]: 7.39 µM (active)

SMILES: c1ccc(-c2ccc3c(c2)c2c4n3CCN=C4CCC2)cc1
- EC50 [10]: 50.1 µM (active)
- EC50 [11]: > 38 µM (not active)
- AC50 (Cytochrome P450 2C19; read-out: AC50): 31.6 µM (inconclusive)
- CC50 (Vero): 23.6 µM (active)

SMILES: COC(=O)CN1CN(c2ccccc2)C2(CCN(Cc3ccc4ccccc4c3)CC2)C1=O
- AC50 (Cytochrome P450 2D6): 20 µM (inconclusive)
- AC50 (Cytochrome P450 2C9): inconclusive

SMILES: CCOC(=O)C1(CCc2ccccc2)CCN(Cc2csc(C(C)=O)c2)CC1
- EC50 [12]: 841 nM (active)

SMILES: Nc1nc(N)c2nc(CNc3ccc(C(=O)N[C@H](CCC(=O)O)C(=O)O)cc3)cnc2n1
- AC50 (Cytochrome P450 2C9): inconclusive

SMILES: Cc1cc2cc(CNC(=O)c3ccc(C)c([N+](=O)[O-])c3)ccc2[nH]1
- AC50 [13]: 11 µM (active)
- IC50 [14]: > 66 µM (inactive)
- IC50 [15]: > 66 µM (inactive)

SMILES: Cc1ccc(C)c(OCCCCn2ccnc2)c1
- EC50 [16]: 2.04 µM (active)
- EC50 [17]: > 60 µM (not active)
- EC50 [12]: 4730 nM (active)

SMILES: CCCC1COC(Cn2cncn2)(c2ccc(C)cc2)O1 (configuration not stated)
- AC50 [13]: 0.73 µM (active)

SMILES: CCCN(CCC)CCCNc1ccc2nnc(-c3ccc(F)cc3)n2n1
- EC50 [12]: 596 nM (active)

SMILES: CC(C)c1ccc(-c2cc(C(=O)N3N=C(C(F)F)CC3(O)C(F)F)c3ccccc3n2)cc1 (configuration not stated)
- EC50 [18]: 3.3 µM (active)
- EC50 (H4): 10 µM (active)
- EC50 (Streptokinase A): > 150 µM (not active)
- EC50 [16]: 3.4 µM (active)
- EC50 [17]: > 60 µM (not active)
- EC50 (Streptococcus): 4.31 µM (active)
- AC50 [6]: 4.37 µM (active)
- AC50 [13]: 4.06 µM (active)

SMILES: C[C@@H]1CCC[C@H](C)N1
- AC50 (Cytochrome P450 2C19): inconclusive
- AC50 (Cytochrome P450 2C9): inconclusive
